Results as given in PMC10474154, “Pro-arrhythmic effect of escitalopram and citalopram at serum concentrations commonly observed in older patients – a study based on a cohort of 19,742 patients” (eBioMedicine, 2023).
“Also recorded” adds a separate entry of the source.

Legend:
[1] = system: human induced pluripotent stem cell-derived cardiomyocytes (hiPSC-CM); assay: Action potential recordings in hiPSC-CM with voltage sensitive dye (FluoVolt, CellOPTIQ); type: cell-based; details: hiPSC-CM
Procedure: Cryopreserved human induced pluripotent stem cell-derived cardiomyocytes (hiPSC-CM): CDI iCell cardiomycytes^2 01434 CardioTox Kit (Catalog #: R1222, FujiFilm CDI, Madison, WI) were kept in liquid nitrogen until culture according to instructions by the manufacturer. […] All studies were conducted at Clyde Biosciences (Glasgow, Scotland). Cells were cultured in 96-well glass-bottomed plates (MatTek, Ashland, Massachusetts) coated with fibronectin ([…] in PBS supplemented with Ca2+ and Mg2+) (Sigma, St. Louis, Missouri) in a humidified incubator at 37 °C for 3 h. The cell density was 50,000 cells/cm2 (25,000 cells/well). The subsequent maintenance protocols followed manufacturer's instructions using their maintenance medial (FujiFilm CDI Cardiomyocytes Maintenance Media). Experiments were performed between days 4–8. Prior to beginning an experiment, cells were washed in serum-free media (SF media), specifically DMEM (Gibco, ThermoFisher Scientific, UK) supplemented with 10 mM galactose and 10 mM sodium pyruvate.
hiPSC-CM were loaded with 5 μM FluoVolt (ThermoFisher) and the multiwell plate was placed in the CellOPTIQ platform (at Clyde Biosciences Ltd, Glasgow, Scotland). The FluoVolt fluorescence signal was recorded using a 40 × (NA 0.6) objective lens. Excitation wavelength was 480 ± 10 nm, and emitted light was collected by a photomultiplier (PMT) at 510–560 nm. Drugs were supplied by Santa Cruz Biotechnology (Germany) and Toronto Research Chemicals (Canada). Their identity and concentration were blinded from the laboratory personnel. […] 30 min after exposure to the tested drug or vehicle a 20 s recording was taken. Offline analysis was performed using proprietary software (CellOPTIQ®). The following (averaged) parameters were obtained from the AP recordings of 4 independent replicates: cycle length (CL, […]); rise time (Trise, ms) between 10 and 90% of the AP amplitude, and AP durations (APD, ms) from 10% to 90% repolarization at 10% intervals. In this study rate-correction was based on previous studies.[14]
Drugs were tested at 3 concentrations with matched vehicle controls for each concentration. The chosen escitalopram (S-citalopram) concentration was 60 nM. Assuming no protein binding in the in vitro model, this corresponds to a total serum concentration of 136 nM, as escitalopram protein binding is reported at 55–56% (most commonly 56%, which is used in the present study).[15], [16], [17] […] This could vary with age and clinical conditions.[20] […] In a large therapeutic drug monitoring (TDM) study 60 nM was the average total concentration in patients with normal escitalopram metabolism through CYP2C19, and 136 nM was below the average total concentration in poor metabolizers.[7] After administration of racemic citalopram, R-citalopram is reported to be 3 times higher than S-citalopram in a publication by Ji et al.[22] The typical concentration of R-citalopram as well as the S-/R-demethylcitalopram and S-/R-didemethylcitalopram metabolites, were calculated according to ratios from their paper.[22]
Shapiro Wilk tests were used to determine whether the data in this study were normally distributed based on a least-squares fit to a normal function, while Brown–Forsythe test was used to verify homogeneity of variance (Origin version 9, OriginLab Corp., Northampton, Massachusetts). […] Statistical tests were made using a paired t-tests for differences between absolute values, with P-values adjusted for multiple comparisons using the Benjamini-Hochberg procedure (one-way ANOVA). The relationship between AP duration at 90% of repolarization (APD90) and CL or diastolic interval was fit to single or double exponential functions (Origin version 9).

[2] = cited from earlier work
[3] = Therapeutic drug monitoring (TDM) serum concentrations in patients; details: for Serum concentration, 10% percentile / Serum concentration, 25% percentile / Serum concentration, 50% percentile / Serum concentration, 75% percentile / Serum concentration, 90% percentile / Serum concentration, maximum / Serum concentration, minimum: trough; for Serum concentration, mean: trough (10-28 h after dose)
Description: Information regarding age, sex, daily dose and time between last dose and blood sampling was also collected from the database. For patients with multiple TDM measurements, only the last measurement was included. Included patients were divided into four subgroups based on age: (a) < 18, (b) 18–64, (c) 65–80, and (d) > 80 years.
Measured serum concentrations represent total concentrations, i.e. the sum of bound and unbound drug.
All patients were included unless they met the exclusion criteria. Exclusion criteria were: (a) serum concentration of citalopram, escitalopram and/or demethylcitalopram outside the limits of quantification (LOQ), (b) blood sampling not performed at trough levels, outside the time interval of 10–28 h after last dose intake, (c) prescribed dose of citalopram or escitalopram less/more than 2.5–80 mg or 2.5–60 mg, respectively, and (d) detection of interacting drugs in the citalopram/escitalopram serum sample. In detail, we screened the samples for CYP2C19 inducers carbamazepine, phenobarbital and phenytoin and the CYP2C19 or –2D6 inhibitors bupropion, fluoxetine, fluvoxamine, paroxetine or levomepromazine.
Differences in absolute serum concentrations of citalopram, escitalopram and metabolites as well as differences in time between last blood sampling and daily dose was investigated across the age subgroups using Kruskal Wallis test followed by Dunn's test. P-values were Bonferroni corrected by multiplying the P-value by the number of statistical analyses that were performed.

[4] = older patients (mean age 76), Canadian study; cited from earlier work

CNCCC[C@]1(c2ccc(F)cc2)OCc2cc(C#N)ccc21 [R-demethylcitalopram]
Concentration dependence of triangulation [1]: dose-dependent increase | Effect on late repolarisation (APD90) ([1]; 2000 nM): not late repolarisation | % Change of cycle length from baseline ([1]; 10x clinical concentration): -9.34±2.21 % | % Change of cycle length from baseline ([1]; 100x clinical concentration): -8.55±6.93 % | Concentration that increased triangulation (APD90-APD30) of the action potential ([1]; 30 min exposure): 2000 nM | Concentration that reduced early repolarisation (APD30) ([1]; 30 min exposure): 2000 nM | Effect on cycle length ([1]; all tested concentrations): limited shortening | % Change of cycle length from baseline ([1]; clinical concentration): -6.45±4.32 %

CN(C)CCC[C@]1(c2ccc(F)cc2)OCc2cc(C#N)ccc21 [R-citalopram]
Triangulation effect ([1]; 10 times typical concentrations): substantial increase | % Change of cycle length from baseline ([1]; 10x clinical concentration): -1.96±5.39% | % Change of cycle length from baseline ([1]; 100x clinical concentration): Quiescent | Concentration that increased triangulation (APD90-APD30) of the action potential ([1]; 30 min exposure): 180 nM | Concentration that reduced medium repolarisation (APD50) ([1]; 30 min exposure): 1800 nM | Effect on cycle length ([1]; all tested concentrations): not affected | % Change of cycle length from baseline ([1]; clinical concentration): 0.99±7.43% | Electrical activity of the cells ([1]; highest concentrations (100 times typical)): electrically quiescent | Depolarisation (phase 0) measured by TRise ([1]; increasing concentrations): No changes; also recorded: No significant increase | Early and medium repolarisation (APD30 and APD50) ([1]; intermediate concentrations): shortening | Triangulation (APD90-APD30) effect ([1]; low concentrations): significantly increased | Late repolarisation ([1]; lowest tested concentrations): prolonged | Concentration relative to S-citalopram after administration of racemic citalopram [2]: 3 times

N#Cc1ccc2c(c1)CO[C@]2(CCCN)c1ccc(F)cc1 [R-didemethylcitalopram]
Cardiotoxic at therapeutic concentrations [1]: did not find indications | % Change of cycle length from baseline ([1]; 10x clinical concentration): -1.09±3.49% | % Change of cycle length from baseline ([1]; 100x clinical concentration): -1.67±2.65% | Concentration that increased early repolarisation (APD30) ([1]; 30 min exposure): 60 nM | Concentration that reduced triangulation (APD90-APD30) ([1]; 30 min exposure): 6 nM | Effect on cycle length ([1]; all tested concentrations): not affected | % Change of cycle length from baseline ([1]; clinical concentration): -1.40±5.04%

CNCCCC1(c2ccc(F)cc2)OCc2cc(C#N)ccc21 (stereo not drawn) [Demethylcitalopram, demethylcitalopram]
Serum concentration, 10% percentile ([3]; citalopram users): 23 nM | Serum concentration, 25% percentile ([3]; citalopram users): 35 nM | Serum concentration, 50% percentile ([3]; citalopram users): 55 nM | Serum concentration, 75% percentile ([3]; citalopram users): 87 nM | Serum concentration, 90% percentile ([3]; citalopram users): 130 nM | Serum concentration, maximum ([3]; citalopram users): 395 nM | Serum concentration, minimum ([3]; citalopram users): 5 nM | Serum concentration, mean ([3]; citalopram users): 68 nM | Serum concentration, 10% percentile ([3]; escitalopram users): 13 nM | Serum concentration, 25% percentile ([3]; escitalopram users): 18 nM | Serum concentration, 50% percentile ([3]; escitalopram users): 26 nM | Serum concentration, 75% percentile ([3]; escitalopram users): 37 nM | Serum concentration, 90% percentile ([3]; escitalopram users): 51 nM | Serum concentration, maximum ([3]; escitalopram users): 329 nM | Serum concentration, minimum ([3]; escitalopram users): 5 nM | Serum concentration, mean ([3]; escitalopram users): 30 nM

N#Cc1ccc2c(c1)CO[C@@]2(CCCN)c1ccc(F)cc1 [S-didemethylcitalopram]
Cardiotoxic at therapeutic concentrations [1]: did not find indications | % Change of cycle length from baseline ([1]; 10x clinical concentration): 9.89±8.49% | % Change of cycle length from baseline ([1]; 100x clinical concentration): 0.09±7.78% | Concentration that increased early repolarisation (APD30) ([1]; 30 min exposure): 15 nM | Concentration that increased late repolarisation (APD90) ([1]; 30 min exposure): 15 nM | Concentration that increased medium repolarisation (APD50) ([1]; 30 min exposure): 15 nM | Concentrations with significant effect on triangulation (APD90-APD30) ([1]; all tested concentrations): No tested concentrations | Effect on cycle length ([1]; all tested concentrations): not affected | Effects on medium to late repolarisation ([1]; at concentrations higher than 15 nM): not present | % Change of cycle length from baseline ([1]; clinical concentration): 1.42±3.67%

CNCCC[C@@]1(c2ccc(F)cc2)OCc2cc(C#N)ccc21 [S-demethylcitalopram]
Concentration dependence of triangulation [1]: dose-dependent increase | % Change of cycle length from baseline ([1]; 10x clinical concentration): -3.81±3.22 % | % Change of cycle length from baseline ([1]; 100x clinical concentration): -7.22±2.14 % | Concentration that increased late repolarisation (APD90) ([1]; 30 min exposure): 1500 nM | Concentration that increased triangulation (APD90-APD30) of the action potential ([1]; 30 min exposure): 150 nM | Concentration that reduced early repolarisation (APD30) ([1]; 30 min exposure): 1500 nM | Effect on cycle length ([1]; all tested concentrations): limited shortening | % Change of cycle length from baseline ([1]; clinical concentration): -4.33±3.45 %

CN(C)CCCC1(c2ccc(F)cc2)OCc2cc(C#N)ccc21 (stereo not drawn) [Citalopram, citalopram]
Relative risk for hospitalization due to ventricular arrhythmia [4]: 1.53 | Time of maximum concentration after intake (Tmax) [2]: 3 to 4 h | Serum concentration, 10% percentile ([3]; citalopram users): 48 nM | Serum concentration, 25% percentile ([3]; citalopram users): 84 nM | Serum concentration, 50% percentile ([3]; citalopram users): 133 nM | Serum concentration, 75% percentile ([3]; citalopram users): 211 nM | Serum concentration, 90% percentile ([3]; citalopram users): 314 nM | Serum concentration, maximum ([3]; citalopram users): 733 nM | Serum concentration, minimum ([3]; citalopram users): 7 nM | Serum concentration, mean ([3]; citalopram users): 163 nM
